Legend:
[1] = test system: panel of 1,151 cancer cell lines; settings: in 52% of 1,151 cancer cell lines; cited from earlier work
CDK12 wt/CycK = biological target: T1, CDK12 wt/CycK (Homo sapiens, UniProt Q9NYV4); assay: Radiometric protein kinase assay (33PanQinase), assay condition 2, thiol containing conditions; assay type: biochemical; settings: thiol containing conditions (1.2 mM DTT), ATP 0.3 μM
T1 construct: either as full-length or enzymatically active fragments
Method: Example 1—Assay condition 2 (thiol containing conditions)
Objective: The IC50 profile of test compounds was determined using protein kinases. IC50 values were measured by testing 10 concentrations (1×10^−04M, 3×10^−05M, 1×10^−05M, 3×10^−06M, 1×10^−06M, 3×10^−07M, 1×10^−07M, 3×10^−08M, 1×10^−08M, and 3×10^−09M) of each compound in singlicate.
Test compounds: The compounds were provided as pre-weighed powders in vials. The compounds were dissolved to 1×10^−02M by adding DMSO. 100 μl of each of the resulting stock solutions were transferred into column 2 of four 96 well “master plates”
Prior to testing, the 1×10^−02M stock solutions in column 2 of the master plates were subjected to a serial, semi-logarithmic dilution using 100% DMSO as a solvent. […] Column 1 and 7 were filled with 100% DMSO as controls. Subsequently, 2×10 μl from each well of the serial diluted copy plates were aliquoted with a 96 channel pipettor into two identical sets of “compound dilution plates”.
In the process, 90 μl H2O were added to each well of a set of compound dilution plates. To minimize potential precipitation, the H2O was added to each plate only a few minutes before the transfer of the compound solutions into the assay plates. Each plate was shaken thoroughly, resulting in a “compound dilution plate/ 10% DMSO”.
For the assays, 5 μl solution from each well of the compound dilution plates/10% DMSO were transferred into the assay plates. The final volume of the assay was 50 μl. All compounds were tested at 10 final assay concentrations in the range from 1×10^−04M to 3×10^−09M, in singlicate. The final DMSO concentration in the reaction cocktails was 1% in all cases.
Recombinant protein kinases: All protein kinases were expressed in Sf9 insect cells or in E.coli as recombinant GST-fusion proteins or His-tagged proteins, either as full-length or enzymatically active fragments. All kinases were produced from human cDNAs and purified by either GSH-affinity chromatography or immobilized metal. Affinity tags were removed from a number of kinases during purification. The purity of the protein kinases was examined by SDS-PAGE/Coomassie staining, the identity was checked by mass spectroscopy.
Protein kinase assay: A radiometric protein kinase assay (^33PanQinase® Activity Assay) was used for measuring the kinase activity. All kinase assays were performed in 96-well FlashPlates™ from PerkinElmer (Boston, MA, USA) in a 50 μl reaction volume. The reaction cocktail was pipetted in four steps in the following order: • 20 μl of assay buffer (standard buffer) • 5μl of ATP solution (in H2O) • 5μl of test compound (in 10% DMSO) • 20 μl enzyme/substrate mix
The assay for all protein kinases contained 70 mM HEPES-NaOH pH 7.5, 3 mM MgCl2, 3 mM MnCl2, 3 μM Na-orthovanadate, 1.2 mM DTT, 50 μg/ml PEG20000, ATP (variable concentrations, corresponding to the apparent ATP-K. of the respective kinase), [γ-^33P]-ATP (approx. 9×10^05cpm per well), protein kinase, and substrate.
The following amounts of enzyme and substrate were used per well:
The reaction cocktails were incubated at 30° C. for 60 minutes. The reaction was stopped with 50 μl of 2% (v/v) H3PO4, plates were aspirated and washed two times with 200 μl 0.9% (w/v) NaCl. Incorporation of ^33Pi was determined with a microplate scintillation counter (Microbeta, Wallac). All assays were performed with a BeckmanCoulter/SAGIANTM Core System.
Evaluation of raw data: The median value of the counts in column 1 (n=8) of each assay plate was defined as “low control”. This value reflects unspecific binding of radioactivity to the plate in the absence of a protein kinase but in the presence of the substrate. The median value of the counts in column 7 of each assay plate (n=8) was taken as the “high control”, i.e. full activity in the absence of any inhibitor. The difference between high and low control was taken as 100% activity. […]

T1 sequence (Q9NYV4 whole entry, the tested form may be a part): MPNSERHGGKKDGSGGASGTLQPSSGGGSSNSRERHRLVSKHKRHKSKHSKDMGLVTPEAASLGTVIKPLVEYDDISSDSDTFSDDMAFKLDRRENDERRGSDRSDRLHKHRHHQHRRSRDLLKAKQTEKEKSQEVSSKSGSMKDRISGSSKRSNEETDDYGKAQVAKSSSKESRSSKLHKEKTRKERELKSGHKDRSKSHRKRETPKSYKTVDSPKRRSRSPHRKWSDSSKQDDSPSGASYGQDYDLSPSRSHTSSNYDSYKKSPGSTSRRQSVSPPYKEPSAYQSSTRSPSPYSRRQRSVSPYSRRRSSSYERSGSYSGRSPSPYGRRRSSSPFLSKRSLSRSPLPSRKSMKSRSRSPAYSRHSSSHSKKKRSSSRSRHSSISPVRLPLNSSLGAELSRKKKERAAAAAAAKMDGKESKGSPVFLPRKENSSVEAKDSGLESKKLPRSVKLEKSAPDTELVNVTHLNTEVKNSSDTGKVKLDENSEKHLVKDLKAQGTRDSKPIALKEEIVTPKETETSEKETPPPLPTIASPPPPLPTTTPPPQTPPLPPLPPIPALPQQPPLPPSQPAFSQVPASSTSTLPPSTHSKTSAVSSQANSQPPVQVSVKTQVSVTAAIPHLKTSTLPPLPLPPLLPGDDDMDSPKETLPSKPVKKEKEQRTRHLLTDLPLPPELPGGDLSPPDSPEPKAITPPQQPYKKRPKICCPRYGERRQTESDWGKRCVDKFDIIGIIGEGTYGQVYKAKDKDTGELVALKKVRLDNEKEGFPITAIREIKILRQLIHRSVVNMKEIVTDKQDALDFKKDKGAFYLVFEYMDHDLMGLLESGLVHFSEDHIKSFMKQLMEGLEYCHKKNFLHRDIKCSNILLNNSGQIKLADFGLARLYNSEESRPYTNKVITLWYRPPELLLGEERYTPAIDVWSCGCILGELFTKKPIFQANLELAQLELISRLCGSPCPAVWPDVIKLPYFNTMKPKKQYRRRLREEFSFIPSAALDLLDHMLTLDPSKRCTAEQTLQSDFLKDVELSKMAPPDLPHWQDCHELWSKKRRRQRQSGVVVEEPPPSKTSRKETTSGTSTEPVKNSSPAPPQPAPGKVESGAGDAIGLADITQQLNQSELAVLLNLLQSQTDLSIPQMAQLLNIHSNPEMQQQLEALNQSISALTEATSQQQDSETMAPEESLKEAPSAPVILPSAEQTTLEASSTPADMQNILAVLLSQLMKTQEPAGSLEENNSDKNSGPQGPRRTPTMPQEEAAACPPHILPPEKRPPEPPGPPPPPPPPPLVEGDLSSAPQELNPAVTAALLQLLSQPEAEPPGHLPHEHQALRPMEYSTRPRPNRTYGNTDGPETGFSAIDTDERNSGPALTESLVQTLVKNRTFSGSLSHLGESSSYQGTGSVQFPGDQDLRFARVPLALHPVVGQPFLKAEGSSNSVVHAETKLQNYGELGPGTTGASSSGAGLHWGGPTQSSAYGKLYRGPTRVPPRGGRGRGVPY
T1 sequence (O75909 whole entry partner, the tested form may be a part): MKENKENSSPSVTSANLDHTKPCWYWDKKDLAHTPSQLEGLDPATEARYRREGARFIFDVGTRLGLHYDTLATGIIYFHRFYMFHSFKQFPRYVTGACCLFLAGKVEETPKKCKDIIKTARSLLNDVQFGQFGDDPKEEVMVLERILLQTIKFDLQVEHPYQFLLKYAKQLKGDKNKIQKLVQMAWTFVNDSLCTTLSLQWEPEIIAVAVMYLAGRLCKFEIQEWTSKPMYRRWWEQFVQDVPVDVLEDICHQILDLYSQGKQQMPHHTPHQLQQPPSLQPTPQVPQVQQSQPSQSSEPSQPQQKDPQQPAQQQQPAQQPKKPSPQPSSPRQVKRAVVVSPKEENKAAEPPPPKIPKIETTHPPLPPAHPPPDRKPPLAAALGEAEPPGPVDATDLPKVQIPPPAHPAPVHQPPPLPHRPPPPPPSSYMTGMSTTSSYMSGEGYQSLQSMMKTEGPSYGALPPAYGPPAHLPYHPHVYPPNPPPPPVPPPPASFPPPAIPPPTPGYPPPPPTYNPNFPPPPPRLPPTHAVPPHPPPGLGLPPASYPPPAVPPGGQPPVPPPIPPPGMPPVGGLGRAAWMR

SMILES | IC50 (CDK12 wt/CycK) [µM] | IC50 [1] [µM]
CN(C)C/C=C/C(=O)Nc1ccc(C(=O)Nc2cccc(Nc3ncc(Cl)c(-c4c[nH]c5ccccc45)n3)c2)cc1 [THZ1] |  | < 0.2
C=CC(=O)Nc1ccc2c(N3CC[C@@H](Nc4ncc(C#N)cn4)C3)nc(OCC(F)(F)F)nc2c1 [Example 32, (R)—N-(4-(3-((5-cyanopyrimidin-2-yl)amino)pyrrolidin-1-yl)-2-(2,2,2-trifluoroethoxy)quinazolin-7-yl)acrylamide] | 0.1 to 1 | 
CC#CC(=O)Nc1ccc2c(N3CC[C@@H](Nc4ncc(Br)cn4)C3)nccc2c1 [Example 33, (R)—N-(1-(3-((5-bromopyrimidin-2-yl)amino)pyrrolidin-1-yl)isoquinolin-6-yl)but-2-ynamide] | ≤ 0.1 | 

More lines, main results first:

IC50 (CDK12 wt/CycK) [µM] | SMILES | IC50 [1] [µM]
≤ 0.1 | C=CC(=O)N(C)c1ccc2c(N3CC[C@@H](Nc4ncc(C#N)cn4)C3)nccc2c1 [Example 36, (R)—N-(1-(3-((5-cyanopyrimidin-2-yl)amino)pyrrolidin-1-yl)isoquinolin-6-yl)-N-methylacrylamide] | 
≤ 0.1 | C=CC(=O)N(C)c1ccc2c(N3CC[C@@H](Nc4ncc(Br)cn4)C3)nc(C)nc2c1 [Example 40, (R)—N-(4-(3-((5-bromopyrimidin-2-yl)amino)pyrrolidin-1-yl)-2-methylquinazolin-7-yl)-N-methylacrylamide] | 
≤ 0.1 | C=CC(=O)N(C)c1ccc2c(N3CC[C@@H](Nc4ncc(C#N)cn4)C3)nc(C)nc2c1 [Example 39, (R)—N-(4-(3-((5-cyanopyrimidin-2-yl)amino)pyrrolidin-1-yl)-2-methylquinazolin-7-yl)-N-methylacrylamide] | 

Source: patent US20220388990A1, “INHIBITORS OF CYCLIN-DEPENDENT KINASES” (Kinnate Biopharma Inc., priority 2019, published 2022)
